The values below come from PMC4646981, “Protein Kinase A Governs Oxidative Phosphorylation Kinetics and Oxidant Emitting Potential at Complex I” (Frontiers in Physiology, 2015).

The structures appear in SMILES notation.

The target in the test is T1, complex I (mitochondrial electron transport system; multi-subunit).
T1 construct: gene Mtnd1; native complex I in freeze-fractured fragments of isolated skeletal muscle mitochondria
Put plainly: NADH oxidation (complex I activity) assay in mitochondrial fragments, dose-response. Format: biochemical, Mus musculus.

By IC50 is commonly meant the concentration that inhibits the measured activity by half. Read a low IC50 as greater potency. The molecule `CC(Sc1nc2ccccc2[nH]1)C(=O)N/N=C/c1cc(Br)ccc1O` (racemic) [KH7] showed an IC50 of 3.7 µM. In other words, the single-digit micromolar range.
